{"source": "patent EP0726257A1", "about": "“1-(Hetero)Arylvinyl-5H-2,3-benzodiazepine derivatives useful for the treatment of central nervous system disorders, and benzopyrylium intermediates for their preparation” (EGIS GYOGYSZERGYAR RT., priority 1995, dated 1996)", "key": {"[1]": {"target": "homophthalazine binding site", "assay": "Displacement of 3H-girisopam from the homophthalazine binding site in rat brain striatal membrane preparation", "conditions": "displacing 5 nM 3H-girisopam", "method": "Ki values were calculated according to the following equation: Ki = IC50 :(1 +([L])/(KD)), [formula] wherein KD is the dissociation constant of the labelled ligand-receptor complex, [L] is the concentration of the labelled ligand and IC50 is the half maximal inhibitory concentration of the test compound."}, "[2]": {"tested_on": "spontaneous motor activity (SMA) in mice", "assay": "Behavioural effects according to Irwin (decrease in spontaneous motor activity)", "format": "in vivo", "parameters": "key: ++ strong; + moderate; +- slight decrease in spon-taneous motor activity [SMA]", "method": "(§1) The behavioural effects of 1-[2'-(substituted) vinyl]-5H-2,3-benzodiazepine derivatives according to the invention and of reference substances were measured according to the method of Irwin (Psychopharmacology, 13, 222 [1968]). The results and the acute toxicity data (dead/treated animals, shown in brackets) can be seen in the following Table II\n(§2) From the above Table II it can be taken that the 1-[2'-(substituted) vinyl]-5H-2,3-benzodiazepine derivatives according to the invention considerably decrease the spontaneous motor activity (SMA) in mice after intraperitoneal or oral administration."}, "[3]": {"tested_on": "mice", "assay": "Acute toxicity (dead/treated animals) in the Irwin test", "format": "in vivo", "method": "as §1, §2"}, "[4]": {"tested_on": "spontaneous motor activity of mice", "assay": "Inhibition of spontaneous motor activity according to Borsy et al.", "format": "in vivo", "conditions": "Mus musculus, po; read-out: Spontaneous motor activity SMA ED50", "method": "(§3) The potential antipsychotic activity of 1-[2'-(substituted) vinyl]-5H-2,3-benzodiazepine derivatives according to the invention and of reference substances was tested according to the method of Puech et al. (Psychopharmacology, 75, 84, [1981] by measuring their inhibiting effect on the \"climbing\" reaction induced by 5,6,6a,7-tetra-(hydro)-6-(methyl)-4H-dibenzo[de,g]quinoline-10,11-di-(ol){apomorphine}. The results have been expressed as ED50 values. Since the inhibition of the spontaneous motor activity (SMA) is an important characteristic of the antipsychotic drugs, the ED50 values of a number of compounds were determined according to the method of Borsy et al. (Arch. Int. Pharmacodyn., 124, 1, 196).\nThe effect of the 1-[2'-(substituted) vinyl]-5H-2,3-benzodiazepine derivatives according to the invention on the spontaneous motor activity was tested according to the method of Borsy et al. Groups consisting of 3 mice were treated orally with different doses of the compounds to be tested. Then the animals were placed into a 10-channel Dews system equipment, wherein the number of interruptions of infrared beam within 30 minutes was counted. […]"}, "[5]": {"tested_on": "\"climbing\" reaction induced by 5,6,6a,7-tetra-(hydro)-6-(methyl)-4H-dibenzo[de,g]quinoline-10,11-di-(ol){apomorphine}", "assay": "Inhibition of apomorphine-induced climbing according to Puech et al.", "format": "in vivo", "conditions": "po; read-out: {apomorphine} Climbing ED50", "method": "as §3"}, "[6]": {"tested_on": "Catalepsy in mice", "assay": "Cataleptic effect in mice (Schlichtegroll)", "format": "in vivo", "conditions": "p.o.", "method": "(§4) The cataleptic effect of the compounds was measured both in mice (Schlichtegroll: Arzneim. Forsch., 8, 489, [1958]) and in rats (Morpurgo: Arch. Int. Pharmacodyn., 137, 87, [1962])."}, "[7]": {"tested_on": "Catalepsy in rats", "assay": "Cataleptic effect in rats (Morpurgo)", "format": "in vivo", "conditions": "p.o.", "method": "as §4"}, "[8]": {"tested_on": "rats", "assay": "Lick-conflict test (Vogel et al.), anxiolytic activity", "format": "in vivo", "conditions": "Rattus norvegicus, po, rats; read-out: Minimal effective dose [MED] Lick conflict", "excerpt": "(§5) The anxiolytic activity was studied in rats according to the \"lick-conflict\" test elaborated by Vogel et al. (Psychopharmacology, 21, 1, [1971] and the elevated plus-maze test described by Pellow (Pellow, J.: Neurosci. Meth. 14, 149, [1985]). The antiaggressive effect was investigated in mice using the \"fighting behaviour\" method of Tedeschi (J. Pharm. Exp. Ther., 125, 28, [1959]). The minimal effective dose (MED) values and the ED50 values obtained are shown in the following Table V."}, "[9]": {"tested_on": "rats", "assay": "Elevated plus-maze test (Pellow), anxiolytic activity", "format": "in vivo", "conditions": "Rattus norvegicus, ip, rats; read-out: Minimal effective dose [MED] Elevated + Maze", "excerpt": "as §5\nThe anxiolytic activity of these compounds was investigated in the elevated plus maze test. Male rats belonging to the Sprague Dawley strain and weighing 220 to 260 g were used as test animals. The test was carried out with the aid of a wooden plus-shaped maze elevated to a height of 50 cm and containing two enclosed and two open arms (50 cm long and 15 cm wide). After 60 minutes pretreatment the animals were placed into the maze and observed for 5 minutes. The drug effect was expressed as percent increase of the time spent on the open arms and number of open arm entries. The minimum effective dose (MED) which caused a significant increase of the time spent on the open arms was calculated for every substance [Pelow, S., Chopin, P., File, S.E., Briley, M.: J. Neurosci. Methods 14, 149 to 167 [1985])."}, "[10]": {"tested_on": "mice", "assay": "Fighting behaviour method of Tedeschi, antiaggressive effect", "format": "in vivo", "conditions": "Mus musculus, po, mice; read-out: ED50 Fighting behaviour", "excerpt": "as §5"}}, "data": [{"smiles": "COc1ccc(C=CC2=NN=C(C)Cc3cc(OC)c(OC)cc32)cc1OC", "note": "[Example 3, 1-[3',4'-Di-(methoxy)-styryl]-4-[methyl]-7,8-di-[methoxy]-5H-2,3-benzodiazepine]", "values": [{"measurement": "Ki", "setting": "[1]", "result": 11, "unit": "nM"}, {"measurement": "Behaviour", "setting": "[2]; 300 mg/kg i.p.", "result": "+ +"}, {"measurement": "Behaviour", "setting": "[2]; 1000 mg/kg p.o.", "result": "+ +"}, {"measurement": "acute toxicity (dead/treated animals)", "setting": "[3]; 300 mg/kg i.p.", "result": "5/6"}, {"measurement": "acute toxicity (dead/treated animals)", "setting": "[3]; 1000 mg/kg p.o.", "result": "5/6"}, {"measurement": "ED50", "setting": "[4]", "result": 8.2, "unit": "mg/kg"}, {"measurement": "ED50", "setting": "[5]", "result": 6.7, "unit": "mg/kg"}, {"measurement": "Catalepsy in mice Minimal effective dose [MED]", "setting": "[6]", "result": 100, "unit": "mg/kg"}, {"measurement": "Catalepsy in rats Minimal effective dose [MED]", "setting": "[7]", "result": ">100", "unit": "mg/kg"}, {"measurement": "minimal effective dose", "setting": "[8]", "result": 0.1, "unit": "mg/kg"}]}, {"smiles": "COc1cc2c(cc1OC)C(C=Cc1ccc(N(C)C)cc1)=NN=C(C)C2", "note": "[Example 4, 1-[4'-(Dimethylamino)-styryl)-4-[methyl]-7,8-di-[methoxy]-5H-2,3-benzodiazepine]", "values": [{"measurement": "Ki", "setting": "[1]", "result": 11, "unit": "nM"}, {"measurement": "Behaviour", "setting": "[2]; 300 mg/kg i.p.", "result": "+ +"}, {"measurement": "Behaviour", "setting": "[2]; 1000 mg/kg p.o.", "result": "+ +"}, {"measurement": "acute toxicity (dead/treated animals)", "setting": "[3]; 300 mg/kg i.p.", "result": "1/5"}, {"measurement": "acute toxicity (dead/treated animals)", "setting": "[3]; 1000 mg/kg p.o.", "result": "1/5"}, {"measurement": "ED50", "setting": "[4]", "result": 4.1, "unit": "mg/kg"}, {"measurement": "ED50", "setting": "[5]", "result": 9.1, "unit": "mg/kg"}, {"measurement": "Catalepsy in mice Minimal effective dose [MED]", "setting": "[6]", "result": ">100", "unit": "mg/kg"}, {"measurement": "Catalepsy in rats Minimal effective dose [MED]", "setting": "[7]", "result": ">100", "unit": "mg/kg"}, {"measurement": "minimal effective dose", "setting": "[8]", "result": 0.3, "unit": "mg/kg"}, {"measurement": "minimal effective dose", "setting": "[9]", "result": 5, "unit": "mg/kg"}, {"measurement": "ED50", "setting": "[10]", "result": 7.4, "unit": "mg/kg"}]}, {"smiles": "COc1ccc(C=CC2=NN=C(C)Cc3cc(OC)c(OC)cc32)c(OC)c1", "note": "[Example 5, 1-[2',4'-Di-(methoxy)-styryl)-4-[methyl]-7,8-di-[methoxy]-5H-2,3-benzodiazepine]", "values": [{"measurement": "Ki", "setting": "[1]", "result": 18, "unit": "nM"}, {"measurement": "Behaviour", "setting": "[2]; 300 mg/kg i.p.", "result": "+ +"}, {"measurement": "Behaviour", "setting": "[2]; 1000 mg/kg p.o.", "result": "+ +"}, {"measurement": "acute toxicity (dead/treated animals)", "setting": "[3]; 300 mg/kg i.p.", "result": "0/5"}, {"measurement": "acute toxicity (dead/treated animals)", "setting": "[3]; 1000 mg/kg p.o.", "result": "0/5"}, {"measurement": "minimal effective dose", "setting": "[9]", "result": 1.25, "unit": "mg/kg"}, {"measurement": "ED50", "setting": "[10]", "result": 15, "unit": "mg/kg"}]}, {"smiles": "COc1cc2c(cc1OC)C(C=Cc1cc(OC)c(OC)c(OC)c1)=NN=C(C)C2", "note": "[Example 6]", "values": [{"measurement": "Ki", "setting": "[1]", "result": 11, "unit": "nM"}, {"measurement": "Behaviour", "setting": "[2]; 300 mg/kg i.p.", "result": "+"}, {"measurement": "Behaviour", "setting": "[2]; 1000 mg/kg p.o.", "result": "+"}, {"measurement": "acute toxicity (dead/treated animals)", "setting": "[3]; 300 mg/kg i.p.", "result": "0/6"}, {"measurement": "acute toxicity (dead/treated animals)", "setting": "[3]; 1000 mg/kg p.o.", "result": "0/6"}, {"measurement": "ED50", "setting": "[4]", "result": 9.3, "unit": "mg/kg"}, {"measurement": "ED50", "setting": "[5]", "result": 15, "unit": "mg/kg"}, {"measurement": "Catalepsy in mice Minimal effective dose [MED]", "setting": "[6]", "result": ">100", "unit": "mg/kg"}, {"measurement": "Catalepsy in rats Minimal effective dose [MED]", "setting": "[7]", "result": ">100", "unit": "mg/kg"}, {"measurement": "minimal effective dose", "setting": "[8]", "result": 1, "unit": "mg/kg"}]}, {"smiles": "COc1cc2c(cc1OC)C(C=Cc1ccccc1F)=NN=C(C)C2", "note": "[Example 10]", "values": [{"measurement": "Ki", "setting": "[1]", "result": 9, "unit": "nM"}, {"measurement": "Behaviour", "setting": "[2]; 300 mg/kg i.p.", "result": "+"}, {"measurement": "Behaviour", "setting": "[2]; 1000 mg/kg p.o.", "result": "+"}, {"measurement": "acute toxicity (dead/treated animals)", "setting": "[3]; 300 mg/kg i.p.", "result": "0/6"}, {"measurement": "acute toxicity (dead/treated animals)", "setting": "[3]; 1000 mg/kg p.o.", "result": "0/6"}, {"measurement": "Catalepsy in mice Minimal effective dose [MED]", "setting": "[6]", "result": ">100", "unit": "mg/kg"}, {"measurement": "Catalepsy in rats Minimal effective dose [MED]", "setting": "[7]", "result": ">100", "unit": "mg/kg"}, {"measurement": "minimal effective dose", "setting": "[8]", "result": 3, "unit": "mg/kg"}]}, {"smiles": "COc1cc2c(cc1OC)C(C=Cc1ccc(C#N)cc1)=NN=C(C)C2", "note": "[Example 57]", "values": [{"measurement": "Ki", "setting": "[1]", "result": 18, "unit": "nM"}, {"measurement": "Catalepsy in mice Minimal effective dose [MED]", "setting": "[6]", "result": ">100", "unit": "mg/kg"}, {"measurement": "Catalepsy in rats Minimal effective dose [MED]", "setting": "[7]", "result": ">100", "unit": "mg/kg"}, {"measurement": "minimal effective dose", "setting": "[8]", "result": 1, "unit": "mg/kg"}]}, {"smiles": "COc1cc2c(cc1OC)C(C=Cc1cccs1)=NN=C(C)C2", "note": "[Example 70]", "values": [{"measurement": "Ki", "setting": "[1]", "result": 13, "unit": "nM"}, {"measurement": "Behaviour", "setting": "[2]; 300 mg/kg i.p.", "result": "+ +"}, {"measurement": "Behaviour", "setting": "[2]; 1000 mg/kg p.o.", "result": "+"}, {"measurement": "acute toxicity (dead/treated animals)", "setting": "[3]; 300 mg/kg i.p.", "result": "2/6"}, {"measurement": "acute toxicity (dead/treated animals)", "setting": "[3]; 1000 mg/kg p.o.", "result": "0/6"}, {"measurement": "Catalepsy in mice Minimal effective dose [MED]", "setting": "[6]", "result": ">100", "unit": "mg/kg"}, {"measurement": "Catalepsy in rats Minimal effective dose [MED]", "setting": "[7]", "result": ">100", "unit": "mg/kg"}, {"measurement": "minimal effective dose", "setting": "[8]", "result": 0.3, "unit": "mg/kg"}]}]}
